Key:
[1] = target: T1, PGM3 (N-Acetylglucosamine-phosphate Mutase) (Homo sapiens, UniProt O95394); assay: ITDRF-CETSA, Western blot (cell extract); assay type: biochemical; set-up: endogenous full-length protein in MDA-MB-231 soluble extract (freeze-thaw), detected by Western blot; details: 30 min RT incubation of extract, heated 3 min at 58 °C; natural substrate
T1 sequence (O95394 1-542): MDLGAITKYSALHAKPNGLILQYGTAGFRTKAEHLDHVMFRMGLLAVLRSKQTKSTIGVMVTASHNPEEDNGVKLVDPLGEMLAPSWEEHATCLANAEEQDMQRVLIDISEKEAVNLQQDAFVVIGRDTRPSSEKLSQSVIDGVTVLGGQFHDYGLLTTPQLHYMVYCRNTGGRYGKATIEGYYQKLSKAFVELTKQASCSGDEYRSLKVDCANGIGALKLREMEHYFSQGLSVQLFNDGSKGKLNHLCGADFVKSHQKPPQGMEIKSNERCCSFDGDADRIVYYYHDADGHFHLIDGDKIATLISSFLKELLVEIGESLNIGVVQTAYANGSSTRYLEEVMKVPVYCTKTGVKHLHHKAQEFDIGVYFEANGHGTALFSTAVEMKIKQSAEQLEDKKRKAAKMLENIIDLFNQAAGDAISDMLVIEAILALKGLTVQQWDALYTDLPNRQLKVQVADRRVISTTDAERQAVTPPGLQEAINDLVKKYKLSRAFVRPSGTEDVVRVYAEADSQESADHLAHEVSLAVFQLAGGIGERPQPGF

[2] = target: T1, PGM3 (N-Acetylglucosamine-phosphate Mutase); assay: CETSA, Western blot (cell extract); details: 30 min RT incubation of extract, heated 3 min at 49-70 °C or isothermal at 58 °C; prodrug tested, possible conversion to FR051 in lysate not excluded

Row | SMILES | ITDRF CETSA [1] | CETSA [2]
1 | CC(=O)N[C@H]1C(O)O[C@H](COP(=O)(O)O)[C@@H](O)[C@@H]1O (some centres unmarked) [GlcNAc-6-P] | more potent binding than the natural substrate GlcNAc-6-P | –
2 | CC(=O)OC[C@H]1O[C@@H]2OC(C)=N[C@@H]2[C@@H](OC(C)=O)[C@@H]1OC(C)=O [FR054, 2-methyl-(3,4,6-tri-O-acetyl-1,2-dideoxy-α-D-glucopyrano)-[2,1-d]-2-oxazoline] | – | FR054 markedly increased the accumulation of PGM3 in the soluble fraction

Source: PMC5841296, “Inhibition of the Hexosamine Biosynthetic Pathway by targeting PGM3 causes breast cancer growth arrest and apoptosis” (Cell Death & Disease, 2018)
